“Also recorded” adds a separate entry of the source. Residues, ends and D or L forms follow the SMILES beside them. *: point of attachment. 5FAM = O=C1OC2(c3ccc(O)cc3Oc3cc(O)ccc32)c2ccc(C(=O)*)cc21

In series [1] the test system is trypsin. Nature of the series: 7 μL of 8 μM trypsin added to peptide in 360 μL of HEPES 20 mM pH = 7.5. The settings on record: 37 °C, up to about 30 h.
The target of series [2] is T1, IN1−288 F185K/C250S (HIV-1 integrase) (Human immunodeficiency virus type 1 group M subtype B, UniProt P12497, C1427S/F1332K).
T1 construct: we first expressed and purified IN1−288 F185K/C250S as previously described; made in house
Nature of the series: Fluorescence anisotropy binding of fluorescein-labeled IN181−188 peptides to IN. The settings on record: for Hill coefficient (n): fluorescence anisotropy, IN titrated into 100 nM fluorescein-labeled peptide, 10°C, ionic strength 1 M (NaCl), fit to Hill equation. As for the experimental part: To test the activity of the cyclic peptide-peptoid hybrids, we first expressed and purified IN1−288 F185K/C250S as previously described (Gabizon et al., [2013]). The double mutant protein was used since it has similar activity as the wild-type but higher solubility (Jenkins et al., [1996]). […] The Hill coefficient for all the cyclic peptides was approximately 4, indicating cooperative binding of the peptides to tetrameric IN.
IN was titrated into a solution of 100 nM fluorescein labeled (Fl) IN181−188 cyclic peptides and into linear IN181−188, which served as a control. Anisotropy measurements were performed generally as described (Friedler et al., [2002]) at 10°C with ionic strength of 1 M (adjusted by NaCl) and the binding curves were fit to the Hill equation (Figure 8, Table 1).

“H2N-W-G(N-alkyl)-F-I-H-N-F-K-R-K-G(N-alkyl)-NH2, the two N-alkyl groups joined by a triazole bridge (n=3, R=H)”: in series [1], the fragment found result is on record as “digested C-2 (C-2 + 18 Da, addition of water)”.
Regarding “H2N-W-G(N-propargyl)-F-I-H-N-F-K-R-K-G(N-(CH2)3-N3)-NH2”, in series [1], the fragment found result was “G(N-propargyl)FIHNFKR, major; also recorded: G(N-propargyl)FIHNFK”.
For the molecule `CC[C@H](C)[C@H](NC(=O)[C@H](Cc1ccccc1)NC(=O)CNC(=O)[C@H](Cc1c[nH]c2ccccc12)NC(=O)c1ccc2c(c1)C(=O)OC21c2ccc(O)cc2Oc2cc(O)ccc21)C(=O)N[C@@H](Cc1c[nH]cn1)C(=O)N[C@@H](CC(N)=O)C(=O)N[C@@H](Cc1ccccc1)C(=O)N[C@@H](CCCCN)C(=O)N[C@@H](CCCNC(=N)N)C(=O)N[C@@H](CCCCN)C(=O)NCC(N)=O` [Fl-WT IN181−188, reference compound] (5FAM-WGFIHNFKRKG-NH2; N-terminus assumed), in series [2], the Kd was 7.6 ± 0.2 µM and the “Hill coefficient (n)” value amounted to 3.6 ± 0.4.
`CC[C@H](C)[C@@H]1NC(=O)[C@H](Cc2ccccc2)NC(=O)CN(C(=O)[C@H](Cc2c[nH]c3ccccc23)NC(=O)c2ccc3c(c2)C(=O)OC32c3ccc(O)cc3Oc3cc(O)ccc32)Cc2cn(nn2)CCCN(CC(N)=O)C(=O)[C@H](CCCCN)NC(=O)[C@H](CCCNC(=N)N)NC(=O)[C@H](CCCCN)NC(=O)[C@H](Cc2ccccc2)NC(=O)[C@H](CC(N)=O)NC(=O)[C@H](Cc2c[nH]cn2)NC1=O` [Fl-C-2]: in series [2], binding was put at a Kd of 9 ± 0.2 µM and the “Hill coefficient (n)” value was 3.8 ± 0.3.
Turning to `CC[C@H](C)[C@@H]1NC(=O)[C@H](Cc2ccccc2)NC(=O)CN(C(=O)[C@H](Cc2c[nH]c3ccccc23)NC(=O)c2ccc3c(c2)C(=O)OC32c3ccc(O)cc3Oc3cc(O)ccc32)Cc2cn(nn2)CCN(CC(N)=O)C(=O)[C@H](CCCCN)NC(=O)[C@H](CCCNC(=N)N)NC(=O)[C@H](CCCCN)NC(=O)[C@H](Cc2ccccc2)NC(=O)[C@H](CC(N)=O)NC(=O)[C@H](Cc2c[nH]cn2)NC1=O` [Fl-C-4], in series [2], the Kd was 7 ± 0.2 µM and the “Hill coefficient (n)” value is reported as 2.5 ± 0.2.
As to `CC[C@H](C)[C@@H]1NC(=O)[C@H](Cc2ccccc2)NC(=O)CN(C(=O)[C@H](Cc2c[nH]c3ccccc23)NC(=O)c2ccc3c(c2)C(=O)OC32c3ccc(O)cc3Oc3cc(O)ccc32)CCCn2cc(nn2)CN(CC(N)=O)C(=O)[C@H](CCCCN)NC(=O)[C@H](CCCNC(=N)N)NC(=O)[C@H](CCCCN)NC(=O)[C@H](Cc2ccccc2)NC(=O)[C@H](CC(N)=O)NC(=O)[C@H](Cc2c[nH]cn2)NC1=O` [Fl-C-1], in series [2], binding was characterised by a dissociation constant (Kd) of 8.1 ± 0.2 µM and the “Hill coefficient (n)” value is recorded as 3.8 ± 0.4.
As for `CC[C@H](C)[C@@H]1NC(=O)[C@H](Cc2ccccc2)NC(=O)CN(C(=O)[C@H](Cc2c[nH]c3ccccc23)NC(=O)c2ccc3c(c2)C(=O)OC32c3ccc(O)cc3Oc3cc(O)ccc32)CCn2cc(nn2)CN(CC(N)=O)C(=O)[C@H](CCCCN)NC(=O)[C@H](CCCNC(=N)N)NC(=O)[C@H](CCCCN)NC(=O)[C@H](Cc2ccccc2)NC(=O)[C@H](CC(N)=O)NC(=O)[C@H](Cc2c[nH]cn2)NC1=O` [Fl-C-3], in series [2], the Kd was determined as 7.7 ± 0.5 µM and the “Hill coefficient (n)” value is given as 2.8 ± 0.5.
